In general, IC50 refers to the concentration at which inhibition is half-maximal.

The structures appear in SMILES notation. *1 amine or outer side, *2 acyl side, *3 side chain or, on linkers, in order; H or OH if unused. Where a SMILES comes first, the peptide text is derived from it. Bridges are numbered along the chain shown (N, C = ends). [ ]: non-standard residue; d: D form. The star is where a group is joined. ξ: configuration not given here. Phe(4-COOH) = N[C@@H](Cc1ccc(C(=O)O)cc1)C(=O)O; Bip = N[C@@H](Cc1ccc(-c2ccccc2)cc1)C(=O)O; Phe(3-Me) = Cc1cccc(C[C@H](N)C(=O)O)c1; γGlu = O=C(O)[C@H](CCC(=O)[*:2])N[*:1]; ξLys(N3) = [N-]=[N+]=NCCCCC(N)C(=O)O; 3Pal = N[C@@H](Cc1cccnc1)C(=O)O; 4Pal = N[C@@H](Cc1ccncc1)C(=O)O; Cha = N[C@@H](CC1CCCCC1)C(=O)O; Cit = NC(=O)NCCC[C@H](N)C(=O)O; Ile(3ξ) = CCC(C)[C@H](N)C(=O)O; dCha = N[C@H](CC1CCCCC1)C(=O)O; Thr(3ξ) = CC(O)[C@H](N)C(=O)O; dDab = NCC[C@@H](N)C(=O)O; Carboxymethyl = O=C(O)C*; NMeA = CN[C@@H](C)C(=O)O; Nle = CCCC[C@H](N)C(=O)O; Orn = NCCC[C@H](N)C(=O)O; Pra = C#CC[C@H](N)C(=O)O; Dab = NCC[C@H](N)C(=O)O; Dap = NC[C@H](N)C(=O)O; Propargyl = C#CC*

Data on 15 molecules can be found in patent US20250163104A1, “MACROCYCLIC IMMUNOMODULATORS” (priority 2021, published 2025).

The target in the assay is T1, human PD-1 / PD-L1-Ig binding on Jurkat cell line over-expressing human PD-1 (Jurkat-PD-1) (Homo sapiens, UniProt Q15116).
T1 construct: expressed in transfected cells; host or cells: Jurkat
T1 sequence (Q15116 25-288): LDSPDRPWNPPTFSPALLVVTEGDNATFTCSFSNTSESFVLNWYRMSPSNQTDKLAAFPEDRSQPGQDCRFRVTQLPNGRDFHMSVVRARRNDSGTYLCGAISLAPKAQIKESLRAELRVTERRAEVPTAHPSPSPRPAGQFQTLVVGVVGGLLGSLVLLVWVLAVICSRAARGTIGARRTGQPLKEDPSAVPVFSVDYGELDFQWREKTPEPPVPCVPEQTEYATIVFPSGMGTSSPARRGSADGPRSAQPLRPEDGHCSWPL
As to the kind of experiment: Jurkat-PD-1 Cell Binding High-Content Screening Assay (CBA). It counts as cell-based. To be noted: Jurkat-PD-1 cells, PE-labeled PD-L1-Ig 20 nM final; read-out: Jurkat HPD1_PDL1 IC50. The procedure, abridged: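 Read-out: high-content imaging of PE-tagged PD-L1-Ig bound to Jurkat cells overexpressing human PD-1, after fixation with 4% paraformaldehyde and Hoechst 33342 nuclear staining. Ligand was used at 20 nM final for 1 hour, after a 2 h compound exposure at 37° C in serum-containing DMEM.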

In the case of `CC(C)C[C@H]1NC(=O)[C@H](CCCN)NC(=O)[C@H](C(C)C)NC(=O)[C@H](Cc2ccc(-c3ccccc3)cc2)NC(=O)[C@H](C(C)C)NC(=O)[C@H](Cc2c[nH]c3ccccc23)NC(=O)[C@H](CC(=O)O)NC(=O)[C@H](Cc2ccc(OCC(=O)O)cc2)NC(=O)[C@H](C(C)O)NC(=O)CSC[C@@H](C(=O)N(C)[C@@H](C)C(N)=O)NC(=O)[C@H](CO)NC(=O)[C@H](C(C)C)NC(=O)[C@H](CC2CCCCC2)NC(=O)[C@H](CCN)NC1=O` (stereo partly drawn) [Compound 2570] ({CH2CO}-[Thr(3ξ)]Y(Carboxymethyl)DWV[Bip]V[Orn][dL][Dab][Cha]VSC[NMeA]-NH2; thioether N-14), the IC50 turned out to be 15.2 nM. Turning to `CC(C)C[C@H]1NC(=O)[C@H](CCCN)NC(=O)[C@H](CCC(=O)O)NC(=O)[C@H](Cc2ccc(-c3ccccc3)cc2)NC(=O)[C@H](C(C)C)NC(=O)[C@H](Cc2c[nH]c3ccccc23)NC(=O)[C@H](CC(=O)O)NC(=O)[C@H](Cc2ccc(OCC(=O)O)cc2)NC(=O)[C@H](CN)NC(=O)CSC[C@@H](C(=O)N[C@@H](C)C(N)=O)NC(=O)[C@H]([C@@H](C)O)NC(=O)[C@H](C(C)C)NC(=O)[C@H](CC2CCCCC2)NC(=O)[C@H](CCN)NC1=O` [Compound 1425], the IC50 was 16.8 nM. Take `CC(C)C[C@@H]1NC(=O)[C@H](Cc2c[nH]c3ccccc23)NC(=O)[C@H](CC(=O)O)NC(=O)[C@H](Cc2ccc(O)cc2)NC(=O)[C@H](Cc2ccccc2)NC(=O)CSC[C@@H](C(=O)N[C@@H](C)C(N)=O)NC(=O)[C@H](CO)NC(=O)[C@H](C(C)C)NC(=O)[C@H](CC(C)C)NC(=O)[C@H](CC(N)=O)NC(=O)[C@@H](C)NC(=O)[C@@H](CCN)NC(=O)[C@H](C(C)C)NC(=O)[C@H](Cc2ccc(-c3ccccc3)cc2)NC1=O` [Compound 2003] ({CH2CO}-FYDWL[Bip]V[dDab][dA]NLVSCA-NH2; thioether N-14): the IC50 worked out at 35 nM. As to `C#CC[C@H](NC(=O)CC[C@H](NC(=O)[C@H](C)NC(=O)[C@@H]1CSCC(=O)N[C@@H](CN)C(=O)N[C@@H](Cc2ccc(OCC(=O)O)cc2)C(=O)N[C@@H](CC(=O)O)C(=O)N[C@@H](Cc2cccc(C)c2)C(=O)N[C@@H](Cc2ccc(OCC(=O)O)cc2)C(=O)N[C@@H](Cc2ccc(-c3ccccc3)cc2)C(=O)N[C@@H](Cc2ccc(OCC(=O)O)cc2)C(=O)N[C@@H](CCCN)C(=O)N[C@H](CC(C)C)C(=O)N[C@@H](CCN)C(=O)N[C@@H](CC2CCCCC2)C(=O)N[C@@H](C(C)C)C(=O)N[C@@H]([C@@H](C)O)C(=O)N1)C(=O)O)C(N)=O` [Compound 1807] ({CH2CO}-[Dap]Y(Carboxymethyl)D[Phe(3-Me)]Y(Carboxymethyl)[Bip]Y(Carboxymethyl)[Orn][dL][Dab][Cha]VTCA[γGlu][Pra]-NH2; thioether N-14), the IC50 came to 4.6 nM. Regarding `Cc1cccc(C[C@@H]2NC(=O)[C@H](CN)NC(=O)CSC[C@@H](C(=O)N[C@@H](C)C(N)=O)NC(=O)[C@H]([C@@H](C)O)NC(=O)[C@H](C(C)C)NC(=O)[C@H](CC3CCCCC3)NC(=O)[C@H](CCN)NC(=O)[C@@H](CC(C)C)NC(=O)[C@H](CCCN)NC(=O)[C@H](CCCNC(N)=O)NC(=O)[C@H](Cc3ccc(-c4ccccc4)cc3)NC(=O)[C@H](C(C)C)NC(=O)[C@H](Cc3c[nH]c4ccccc34)NC(=O)[C@H](CC(=O)O)NC2=O)c1` [Compound 2109] ({CH2CO}-[Dap][Phe(3-Me)]DWV[Bip][Cit][Orn][dL][Dab][Cha]VTCA-NH2; thioether N-14), the IC50 is 38.5 nM. As for `CC(C)C[C@@H]1NC(=O)[C@H](Cc2c[nH]c3ccccc23)NC(=O)[C@H](CC(=O)O)NC(=O)[C@H](Cc2ccc(O)cc2)NC(=O)[C@H](Cc2ccccc2)NC(=O)CSC[C@@H](C(=O)N[C@@H](C)C(N)=O)NC(=O)[C@H](CO)NC(=O)[C@H](C(C)C)NC(=O)[C@H](CC(C)C)NC(=O)[C@H](CCN)NC(=O)[C@@H](C)NC(=O)[C@H](CCCN)NC(=O)[C@H](C(C)C)NC(=O)[C@H](Cc2ccc(-c3ccccc3)cc2)NC1=O` [Compound 1095] ({CH2CO}-FYDWL[Bip]V[Orn][dA][Dab]LVSCA-NH2; thioether N-14), the IC50 was 146 nM. As to `CCCC[C@@H]1NC(=O)[C@H](CCCNC(=N)N)NC(=O)[C@@H](CC(C)C)NC(=O)[C@H](CCCN)NC(=O)[C@H]([C@@H](C)CC)NC(=O)[C@H](Cc2ccc(-c3ccccc3)cc2)NC(=O)[C@H](C(C)C)NC(=O)[C@H](Cc2c[nH]c3ccccc23)NC(=O)[C@H](CC(=O)O)NC(=O)[C@H](Cc2ccc(O)cc2)NC(=O)[C@H](CN)NC(=O)CSC[C@@H](C(=O)N[C@@H](C)C(N)=O)NC(=O)[C@H]([C@@H](C)O)NC(=O)[C@H](C(C)C)NC1=O` [Compound 1149] ({CH2CO}-[Dap]YDWV[Bip]I[Orn][dL]R[Nle]VTCA-NH2; thioether N-14), the IC50 worked out at 47 nM.

In the case of `CC(C)[C@@H]1NC(=O)[C@H](Cc2c[nH]c3ccccc23)NC(=O)[C@H](CC(=O)O)NC(=O)[C@H](Cc2ccc(OCC(=O)O)cc2)NC(=O)[C@H](Cc2ccncc2)NC(=O)CSC[C@@H](C(=O)N[C@@H](C)C(N)=O)NC(=O)[C@H]([C@@H](C)O)NC(=O)[C@H](C(C)C)NC(=O)[C@H](CC2CCCCC2)NC(=O)[C@H](CCN)NC(=O)[C@@H](CC2CCCCC2)NC(=O)[C@H](CCCN)NC(=O)[C@H](CCCNC(N)=O)NC(=O)[C@H](Cc2ccc(-c3ccccc3)cc2)NC1=O` [Compound 1644] ({CH2CO}-[4Pal]Y(Carboxymethyl)DWV[Bip][Cit][Orn][dCha][Dab][Cha]VTCA-NH2; thioether N-14), the IC50 was 16.7 nM.

`Cc1cccc(C[C@@H]2NC(=O)[C@H](CC(=O)O)NC(=O)[C@H](Cc3ccc(C(=O)O)cc3)NC(=O)[C@H](Cc3ccncc3)NC(=O)CSC[C@@H](C(=O)N[C@@H](C)C(N)=O)NC(=O)[C@H]([C@@H](C)O)NC(=O)[C@H](C(C)C)NC(=O)[C@H](CC3CCCCC3)NC(=O)[C@H](CCN)NC(=O)[C@@H](CC(C)C)NC(=O)[C@H](CCCN)NC(=O)[C@H](C(C)C)NC(=O)[C@H](Cc3ccc(-c4ccccc4)cc3)NC(=O)[C@H](C(C)C)NC2=O)c1` [Compound 1194]: the IC50 was found to be 4.7 nM. `CC(C)C[C@H]1NC(=O)[C@H](CCCN)NC(=O)[C@H](CCC(=O)O)NC(=O)[C@H](Cc2ccc(-c3ccccc3)cc2)NC(=O)[C@H](C(C)C)NC(=O)[C@H](Cc2c[nH]c3ccccc23)NC(=O)[C@H](CC(=O)O)NC(=O)[C@H](Cc2ccc(C(=O)O)cc2)NC(=O)[C@H](Cc2ccccc2)NC(=O)CSC[C@@H](C(=O)N[C@@H](C)C(N)=O)NC(=O)[C@H]([C@@H](C)O)NC(=O)[C@H](C(C)C)NC(=O)[C@H](CC2CCCCC2)NC(=O)[C@H](CCN)NC1=O` [Compound 2158] ({CH2CO}-F[Phe(4-COOH)]DWV[Bip]E[Orn][dL][Dab][Cha]VTCA-NH2; thioether N-14): the IC50 stood at 7.7 nM. For `CC(C)C[C@@H]1NC(=O)[C@H](CCCNC(=N)N)NC(=O)[C@@H](CC(C)C)NC(=O)[C@@H](CCCCN)NC(=O)[C@H](CCCNC(=N)N)NC(=O)[C@H](Cc2ccc(-c3ccccc3)cc2)NC(=O)[C@H](C(C)C)NC(=O)[C@H](Cc2c[nH]c3ccccc23)NC(=O)[C@H](CC(=O)O)NC(=O)[C@H](Cc2ccc(O)cc2)NC(=O)[C@H](CC(N)=O)NC(=O)CSC[C@@H](C(=O)N[C@@H](C)C(N)=O)NC(=O)[C@H]([C@@H](C)O)NC(=O)[C@H](C(C)C)NC1=O` [Compound 1013] ({CH2CO}-NYDWV[Bip]R[dK][dL]RLVTCA-NH2; thioether N-14), the IC50 came to 129 nM.

For the molecule `Cc1cccc(C[C@@H]2NC(=O)[C@H](CC(=O)O)NC(=O)[C@H](Cc3ccc(C(=O)O)cc3)NC(=O)[C@H](Cc3ccncc3)NC(=O)CSC[C@@H](C(=O)N[C@@H](CCN)C(N)=O)NC(=O)[C@H]([C@@H](C)O)NC(=O)[C@H](C(C)C)NC(=O)[C@H](CC3CCCCC3)NC(=O)[C@H](CCN)NC(=O)[C@@H](CC(C)C)NC(=O)[C@H](CCCN)NC(=O)[C@H](Cc3ccc(O)cc3)NC(=O)[C@H](Cc3ccc(-c4ccccc4)cc3)NC(=O)[C@H](C(C)C)NC2=O)c1` [Compound 2292] ({CH2CO}-[4Pal][Phe(4-COOH)]D[Phe(3-Me)]V[Bip]Y[Orn][dL][Dab][Cha]VTC[Dab]-NH2; thioether N-14), the IC50 amounted to 18.4 nM.

On to `CC(C)C[C@H]1NC(=O)[C@H](CCCN)NC(=O)[C@H](CCC(=O)O)NC(=O)[C@H](Cc2ccc(-c3ccccc3)cc2)NC(=O)[C@H](C(C)C)NC(=O)[C@H](Cc2c[nH]c3ccccc23)NC(=O)[C@H](CC(=O)O)NC(=O)[C@H](Cc2ccc(OCC(=O)O)cc2)NC(=O)[C@H](Cc2cnc[nH]2)NC(=O)CSC[C@@H](C(=O)N[C@@H](CC(N)=O)C(N)=O)NC(=O)[C@H](C(C)O)NC(=O)[C@H](C(C)C)NC(=O)[C@H](CC2CCCCC2)NC(=O)[C@H](CCN)NC1=O` (stereo partly drawn) [Compound 2562] ({CH2CO}-HY(Carboxymethyl)DWV[Bip]E[Orn][dL][Dab][Cha]V[Thr(3ξ)]CN-NH2; thioether N-14), for which the IC50 was determined as 6.5 nM.

Turning to `CCC(C)[C@@H]1NC(=O)[C@H](Cc2ccc(-c3ccccc3)cc2)NC(=O)[C@H](C(C)C)NC(=O)[C@H](Cc2cccc(C)c2)NC(=O)[C@H](CC(=O)O)NC(=O)[C@H](Cc2cccnc2)NC(=O)[C@H](CC(N)=O)NC(=O)CSC[C@@H](C(=O)N[C@@H](C)C(N)=O)NC(=O)[C@H]([C@@H](C)O)NC(=O)[C@H](C(C)C)NC(=O)[C@H](CC2CCCCC2)NC(=O)[C@H](CCN)NC(=O)[C@@H](CC(C)C)NC(=O)[C@H](CCCN)NC1=O` (stereo partly drawn) [Compound 2233] ({CH2CO}-N[3Pal]D[Phe(3-Me)]V[Bip][Ile(3ξ)][Orn][dL][Dab][Cha]VTCA-NH2; thioether N-14), the IC50 is 12 nM.

For `C#CCOc1ccc(C[C@@H]2NC(=O)[C@H](CN)NC(=O)CSC[C@@H](C(=O)NC(CCCCN=[N+]=[N-])C(N)=O)NC(=O)[C@H]([C@@H](C)O)NC(=O)[C@H](C(C)C)NC(=O)[C@H](CC3CCCCC3)NC(=O)[C@H](CCN)NC(=O)[C@@H](CC(C)C)NC(=O)[C@H](CCCN)NC(=O)[C@H](CCC(=O)O)NC(=O)[C@H](Cc3ccc(-c4ccccc4)cc3)NC(=O)[C@H](C(C)C)NC(=O)[C@H](Cc3c[nH]c4ccccc34)NC(=O)[C@H](CC(=O)O)NC2=O)cc1` (stereo partly drawn) [Compound 1538] ({CH2CO}-[Dap]Y(Propargyl)DWV[Bip]E[Orn][dL][Dab][Cha]VTC[ξLys(N3)]-NH2; thioether N-14), the IC50 was 135 nM.
